From patent publication US20220235421A1, “DETECTING AND TREATING CISPLATIN SENSITIVE CANCER” (The Cleveland Clinic Foundation, priority 2021, published 2022)

Tested on: epithelial-based cancer cell lines (GDSC)
Assay: Cell Line Persistence Curve of cisplatin IC50 in the GDSC dataset, by CisSig score cohort
Conditions: cisplatin concentration approximately 5
Text: FIG. 11C compares the distribution of IC50 between cohorts of GDSC cell lines in this top and bottom quintile of CisSig score. We are terming this plot a “Cell Line Persistence Curve”, which resembles a Kaplan-Meier survival curve, but uses IC50 in place of survival time for cell lines. […] For example, when cisplatin concentration reaches approximately 5 approximately 50% of the resistant cohort remains with a greater IC50, while only 20% of the sensitive cohort remains with a greater IC50. In other words, cell lines predicted to be resistant tend to have greater IC50 values and cell lines predicted to be sensitive tend to have lower IC50 values.
The drug response data in the GDSC database was last updated 27 Mar. 2018; this version is referred to as “GDSC2.” Cisplatin drug concentration is reported in μM. Raw viability data were processed using the R package, gdscIC50, where they were normalized with negative controls (media alone) and positive controls (media only wells with no cells). Dose-response curves were fit using a multi-level fixed effect model with a classic sigmoidal curve shape assumed. This model was fitted using all cell line/drug combinations that were screened instead of fitting separate models to individual drug-response series. […]

N.N.[Cl][Pt][Cl] [cisplatin]
proportion of the cohort remaining with a cisplatin IC50 greater than the cisplatin concentration (resistant cohort (bottom quintile of CisSig score)): approximately 50% | proportion of the cohort remaining with a cisplatin IC50 greater than the cisplatin concentration (sensitive cohort (top quintile of CisSig score)): 20%
